Where two headings read alike, the source gives them in different places.
What was measured:
NASH patients [1] = settings: oral dose of 150 mg, one year, cited from earlier work
[2] = system: DIAMOND™ mouse model of NASH; assay: Efficacy of fluasterone in the DIAMOND mouse model of NASH (Western Diet Sugar Water); assay type: in vivo; settings: for mice progressed to measurable fibrosis by NASH CRN score: 24 week WDSW group 5/10
Method: DIAMOND™ (Diet Induced Animal Model of Non-alcoholic fatty liver Disease) mouse model is a mouse model of NASH. This mouse model was used to assess the effect of fluasterone. The drug formulation (subcutaneous injectable formulation) contained fluasterone as an active pharmaceutical ingredient in a vehicle. The vehicle contained RO (reverse osmosis) water mixed with sterile saline solution and 5% Tween-80. The drug formulation was prepared as follows: micronized powder of fluasterone (submicron range particles of fluasterone) was suspended in the vehicle and vortexed to evenly suspend. Two doses of fluasterone were used and compared to vehicle controls and positive and negative natural history controls to determine the impact on weight gain, fatty liver, steatohepatitis, and the progression to fibrosis. The two different doses of fluasterone used were (i) a low dose (LD) fluasterone (5 mg fluasterone/kg body weight) for 8 weeks and (ii) a high dose (HD) fluasterone (20 mg fluasterone/kg body weight) for 8 weeks. Vehicle Control was sterile saline with 5% Tween-80. The other details are as follows: (1) Animal Species: DIAMOND™ Mice (Male C57BL/6J(B6)-129s1/SvImJ(S129)). (2) Positive Control and Treatment Groups' food and drinking water: (a) Food—Western Diet ENVIGO Harlan/Teklad 42% Adjusted Calories from Fat (TD. 88137), and (b) RO Water—Sugar Water—D-fructose Alfa Aesar #A17718 and D-glucose Water—Fisher Scientific #D19-212; Recipe=231 g Fructose+189 g Glucose+750 ml RO (reverse osmosis) water Diluted into 9 L RO Water. This diet is referred to herein as Western Diet Sugar Water (WDSW). (3) Negative Control Group's food and drinking water: (a) Normal Mouse Chow Diet—ENVIGO Harlan/Teklad Normal Rodent Chow (TD 7012 Teklad LM-485), and (b) RO water. This diet is referred to herein interchangeably as Normal Diet Normal Water (NDNW) and Normal Chow Normal Water (NCNW).
Eight-two (82) DIAMOND™ mice were put on the special diet WDSW (high fat diet (Harlan/Teklad 42% fat) and sweetened water (D-Fructose and D-Glucose)) at time point 0 (t=0) (at eight weeks of age). Mice were weighed weekly. Of these, 10 mice were injected subcutaneously with fluasterone at concentration 5 mg/kg and 10 mice were injected subcutaneously with fluasterone at concentration 20 mg/kg, and 5 mice in a staggered group were injected with vehicle starting at 16 weeks on diet (t=16) until 24 weeks (t=24), as described in “Subcutaneous Injection.” For baseline controls, 8 male DIAMOND™ mice were placed on the WDSW at eight weeks of age and given no treatment; these were the positive natural history controls. A second group of 8 male DIAMOND™ mice were continued on the NCNW/NDNW at eight (8) weeks and these were the negative natural history control group. The mice were weighed weekly. At 16, 20, and 24 weeks on diet, fasting insulin was measured in serum from tail vein nick. HOMA-IR scores were calculated. 8 mice on WDSW and 8 mice NDNW were sacrificed at 16 weeks (t=16) on diet as baseline positive and negative controls. 8 mice on WDSW and 8 mice NDNW were sacrificed at 24 weeks (t=24). Carbon dioxide was used as an anesthetic and a cardiac puncture was performed for exsanguination. Cervical dislocation was performed as a secondary means of euthanasia.
As discussed above, the drug formulation used in this experiment contained fluasterone as an active pharmaceutical ingredient in a vehicle. The vehicle contained RO water mixed with sterile saline solution and 5% Tween-80.
Body Weights: Mice were weighed weekly and the weights determined the amount of test compound administered.
Subcutaneous Injection: The mice received a subcutaneous injection 1× daily. In summary, mice were grasped at the scruff of the neck and a suitable place was selected for the injection. The injection site was moved daily to ensure limited distress to the animal. […]

[3] = system: TPA-stimulated epidermal hyperplasia in mouse skin; settings: cited from earlier work
mouse diabetic model = settings: U.S. Pat. No. 8,431,555; cited from earlier work
NASH patients [4] = settings: obeticholic acid treatment; cited from earlier work
[5] = system: Nonalcoholic Steatohepatitis patients; settings: PIVENS histologic response criteria; 0.025 considered statistically significant; cited from earlier work

Q: What does the source list for CSc1ccc(C(=O)/C=C/c2cc(C)c(OC(C)(C)C(=O)O)c(C)c2)cc1 [GFT 505]?
A: improvement in histologically-assessed NASH vs. placebo (NASH patients [1]; all patients): failed to produce a statistically significant improvement; improvement in histologically-assessed NASH vs. placebo (NASH patients [1]; patients with the mildest form of NASH (NAS<3) excluded): statistically significant improvement vs. placebo

Q: Which results are given for C[C@]12CCCCC1=CC[C@@H]1[C@@H]2CC[C@]2(C)C(=O)[C@H](F)C[C@@H]12 [fluasterone, 16α-fluoro-5-androsten-17-one]?
A: fasting blood ketones at necropsy ([2]; both low dose 5 mg/kg (P 0.01) and high dose 20 mg/kg (P 0.0005) vs 24 weeks WDSW): significantly lower; fasting blood glucose ([2]; both low dose 5 mg/kg and high dose 20 mg/kg s.c., 8 weeks, vs 24 weeks WDSW, P 0.003 each (FIG. 3)): significantly improved; SAF Activity score ([2]; both treatment groups vs 24 week positive controls, high dose P<0.039, low dose P<0.008 (FIG. 17)): improved the SAF scores; NAS score ([2]; both treatment groups vs 24 week positive controls, high dose P<0.05, low dose P<0.001 (FIG. 18)): improved the NAS score; lobular inflammation ([2]; both treatment groups vs 24 weeks WDSW, high dose P<0.01, low dose P<0.032 (FIG. 14)): significantly reduced inflammation; serum triglycerides ([2]; fluasterone-treated mice vs WDSW): no significant difference; total serum cholesterol ([2]; fluasterone-treated mice vs WDSW positive controls, low dose P=0.0504): lower total serum cholesterol; liver weight vs WDSW positive control ([2]; high dose 20 mg/kg s.c. 1x daily for 8 weeks (weeks 16-24 on WDSW), P=0.054): smaller livers compared to the WDSW 24 wk control group; fibrosis (NASH CRN) ([2]; high dose 20 mg/kg vs 24 week positive controls, P=0.15): not statistically less fibrotic although there was a trend; alkaline phosphatase (ALP) ([2]; high dose 20 mg/kg vs WDSW control, P=0.058): strong trend to improvement; mice that progressed to NASH ([2]; high dose 20 mg/kg, 24 week WDSW control 10/10, baseline (16 weeks) 5/10): 5/10; mice progressed to measurable fibrosis by NASH CRN score ([2]; high dose 20 mg/kg): 2/10; perisinusoidal fibrosis ([2]; high dose 20 mg/kg, P value of 0.052): almost statistically significant; fasting insulin (ELISA) ([2]; low and high dose groups vs WDSW positive control, baseline (16 weeks) and end of study (24 weeks)): not statistically significant between drug treated groups and WDSW positive control; HOMA IR ([2]; low and high dose groups vs positive WDSW control, data not shown): comparable between the positive WDSW control and the drug treated groups; steatosis grade ([2]; low and high dose groups vs positive controls): neither treatment group had improved steatosis grade; necropsy body weight ([2]; low dose 5 mg/kg and high dose 20 mg/kg s.c., 8 weeks, vs 24 week WDSW): comparable to the 24 week positive WDSW controls; liver weight vs WDSW positive control ([2]; low dose 5 mg/kg s.c. 1x daily for 8 weeks (weeks 16-24 on WDSW), P=0.12): smaller livers than the WDSW positive control group, however the difference was not statistically significant; AST ([2]; low dose 5 mg/kg vs 24 week WDSW, P=0.10): statistically significant drop in AST; hepatocyte ballooning ([2]; low dose 5 mg/kg vs 24 week positive control, P=0.026): statistically less ballooning; fibrosis (NASH CRN) ([2]; low dose 5 mg/kg vs 24 week positive controls, P=0.057): lower than the 24 week positive controls; alkaline phosphatase (ALP) ([2]; low dose 5 mg/kg vs WDSW control, P=0.01): significantly lower; steatosis percentage ([2]; low dose 5 mg/kg vs positive controls, P=0.032): statistically significantly less steatosis percentage; mice that developed NASH ([2]; low dose 5 mg/kg, 24 week WDSW control 10/10, baseline (16 weeks) 5/10): 7/10; mice progressed to measurable fibrosis by NASH CRN score ([2]; low dose 5 mg/kg): 1/10; perisinusoidal fibrosis ([2]; low dose 5 mg/kg, P=0.002): significantly less perisinusoidal fibrosis; ALT ([2]; treated mice vs 24 week positive control, P 0.11 (low dose) and 0.051 (high dose)): strong trend towards improved ALT (lower ALT); effective dose abolishing TPA-stimulated epidermal hyperplasia ([3]; oral): at least 200 mg/kg; lowest effective dose abolishing TPA-stimulated epidermal hyperplasia ([3]; subcutaneous injection): 2.5 mg/kg; hyperglycemia (mouse diabetic model): effective in reducing hyperglycemia

Q: For CC[C@H]1[C@@H](O)[C@@H]2[C@H](CC[C@]3(C)[C@@H]([C@H](C)CCC(=O)O)CC[C@@H]23)[C@@]2(C)CC[C@@H](O)C[C@@H]12 [obeticholic acid], which insulin sensitivity (NASH patients [4]) is on record?
A: Its insulin sensitivity is “decrease in insulin sensitivity”.

Q: And the “plasma LDL and total cholesterol” value (NASH patients [4])?
A: Its value is “significant increase”.

Q: Which “histologic improvement compared with placebo” value [5] does the source give for Vitamin E here?
A: The value was “significant histologic improvement compared with placebo”.
